Measured values reported in patent publication US6706663B2, “Herbicidal 3-heterocyclic substituted benzisothiazole and benzisoxazole compounds” (Wyeth, priority 2000, dated 2004).

Assays:
[1] = tested on: GLXMAW (Soybean, Williams); assay: Preemergence herbicidal evaluation; assay type: in vivo, Glycine max, (L.) Merr. cv Williams; details: rated 4-5 weeks after treatment
[2] = tested on: GLXMAW (Soybean, Williams); assay: Postemergence herbicidal evaluation; assay type: in vivo, Glycine max, (L.) Merr. cv Williams
Outline: (§1)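 Visual 0–9 injury scores versus control plants, covering stand, vigour, malformation, size, chlorosis and general appearance, taken four to five weeks post-spray and averaged over replicate tests. Plants were sprayed at roughly two weeks old and held on greenhouse benches.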

SETVI (Setaria viridis) [3] = assay: Preemergence herbicidal evaluation; assay type: in vivo, (L.) Beau; details: rated 4-5 weeks after treatment
Outline: (§2)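 Rating 0–9, visual, vs control; 4–5 wk after spraying seeded cups with compound in aq. acetone; conventional greenhouse care.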

[4] = tested on: ECHCG (Echinochloa crus-galli); assay: Preemergence herbicidal evaluation; assay type: in vivo, (L.) Beau; details: rated 4-5 weeks after treatment
Outline: as §2

GALAP (Galium aparine) [5] = assay: Postemergence herbicidal evaluation; assay type: in vivo
Outline: as §1

[6] = tested on: IPOHE (Ipomoea hederacea); assay: Preemergence herbicidal evaluation; assay type: in vivo, (L.) Jacq.; details: rated 4-5 weeks after treatment
ZEAMX (Corn, Field) = assay: Preemergence herbicidal evaluation; assay type: in vivo, Zea mays, L.; details: rated 4-5 weeks after treatment
GALAP (Galium aparine) [7] = assay: Preemergence herbicidal evaluation; assay type: in vivo; details: rated 4-5 weeks after treatment
Outline: as §2

[8] = tested on: MOOVA (Monochoria vaginalis); assay: Flooded paddy, preemergence weed control; assay type: in vivo, Presl.; details: rated 3-4 weeks after treatment, 0-9 rating scale
Outline: (§3)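 Seeds or propagules were planted in the top 0.5 cm of silt loam soil and kept flooded 1.5–3 cm above the surface throughout, then held in the greenhouse. Injury was rated visually on a 0–9 scale against untreated controls, covering stand, vigor, malformation, size and chlorosis.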

CYPIR (Cyperus iria) = assay: Flooded paddy, preemergence weed control; assay type: in vivo; details: rated 3-4 weeks after treatment, 0-9 rating scale
Outline: as §3

SETVI (Setaria viridis) [9] = assay: Postemergence herbicidal evaluation; assay type: in vivo, (L.) Beau
Outline: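 ~2-wk seedlings; spray 0.0040–1.000 kg/ha in 50/50 acetone/water + 0.5% TWEEN 20, 40 psi nozzle. Greenhouse hold; visual 0–9 rating vs control at 4–5 wk; multiple tests averaged.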

| SMILES | Preemergence herbicidal rating GLXMAW ([1]; Rate 0.0620 kg/ha) | Preemergence herbicidal rating GLXMAW ([1]; Rate 0.1250 kg/ha) | Preemergence herbicidal rating GLXMAW ([1]; Rate 0.2500 kg/ha) | Postemergence herbicidal rating, GLXMAW ([2]; rate 0.0320 kg/ha) | Postemergence herbicidal rating, GLXMAW ([2]; rate 0.0620 kg/ha) | Preemergence herbicidal rating SETVI (SETVI (Setaria viridis) [3]; Rate 0.0620 kg/ha) | Preemergence herbicidal rating SETVI (SETVI (Setaria viridis) [3]; Rate 0.1250 kg/ha) | Preemergence herbicidal rating SETVI (SETVI (Setaria viridis) [3]; Rate 0.2500 kg/ha) | Preemergence herbicidal rating ECHCG ([4]; Rate 0.0620 kg/ha) | Preemergence herbicidal rating ECHCG ([4]; Rate 0.1250 kg/ha) | Preemergence herbicidal rating ECHCG ([4]; Rate 0.2500 kg/ha) | Postemergence herbicidal rating, GALAP (GALAP (Galium aparine) [5]; rate 0.0320 kg/ha) | Postemergence herbicidal rating, GALAP (GALAP (Galium aparine) [5]; rate 0.0620 kg/ha) | Preemergence herbicidal rating IPOHE ([6]; Rate 0.0620 kg/ha) | Preemergence herbicidal rating IPOHE ([6]; Rate 0.1250 kg/ha) | Preemergence herbicidal rating IPOHE ([6]; Rate 0.2500 kg/ha) | Preemergence herbicidal rating ZEAMX (ZEAMX (Corn, Field); Rate 0.0620 kg/ha) | Preemergence herbicidal rating ZEAMX (ZEAMX (Corn, Field); Rate 0.1250 kg/ha) | Preemergence herbicidal rating ZEAMX (ZEAMX (Corn, Field); Rate 0.2500 kg/ha) | Preemergence herbicidal rating GALAP (GALAP (Galium aparine) [7]; Rate 0.0620 kg/ha) | other results |
| --- | --- | --- | --- | --- | --- | --- | --- | --- | --- | --- | --- | --- | --- | --- | --- | --- | --- | --- | --- | --- | --- |
| Cc1cc(C)nc(-c2nsc3ccc(-n4c(=O)cc(C(F)(F)F)n(C)c4=O)cc23)n1 [Compound 40, 3-[3-(4,6-dimethyl-2-pyrimidinyl)-1,2-benzisothiazol-5-yl]-1-methyl-6-(trifluoromethyl)uracil] | 2.0 | 2.0 | 5.0 | 7.0 | 8.0 | 3.0 | 9.0 | 9.0 | 3.0 | 7.0 | 8.0 | 2.0 | 2.0 | 2.0 | 7.0 | 9.0 | 4.0 | 8.0 | 9.0 | 0.0 | Preemergence herbicidal rating GALAP (GALAP (Galium aparine) [7]; Rate 0.1250 kg/ha): 0.0; Preemergence herbicidal rating GALAP (GALAP (Galium aparine) [7]; Rate 0.2500 kg/ha): 8.0; herbicidal rating, MOOVA ([8]; rate 0.0320 kg/ha): 7.0; herbicidal rating, MOOVA ([8]; rate 0.1250 kg/ha): 9.0; herbicidal rating, CYPIR (CYPIR (Cyperus iria); rate 0.0320 kg/ha): 5.0; herbicidal rating, CYPIR (CYPIR (Cyperus iria); rate 0.1250 kg/ha): 6.0; Postemergence herbicidal rating, SETVI (SETVI (Setaria viridis) [9]; rate 0.0320 kg/ha): 3.0; Postemergence herbicidal rating, SETVI (SETVI (Setaria viridis) [9]; rate 0.0620 kg/ha): 9.0 |
| Cc1ccc(-c2nsc3ccc(-n4c(=O)cc(C(F)(F)F)n(C)c4=O)cc23)nc1 [Compound 42, 1-methyl-3-[3-(5-methyl-2-pyridyl)-1,2-benzisothiazol-5-yl]-6-(trifluoromethyl)uracil] | 0.0 | 1.0 | 2.5 | 6.0 | 8.0 | 5.0 | 7.5 | 9.0 | 1.0 | 5.5 | 8.5 | 1.0 | 3.0 | 1.0 | 2.0 | 4.5 | 3.5 | 6.0 | 6.5 | 0.0 | Postemergence herbicidal rating, GLXMAW ([2]; rate 0.1250 kg/ha): 8.0; Postemergence herbicidal rating, GALAP (GALAP (Galium aparine) [5]; rate 0.1250 kg/ha): 3.0; Preemergence herbicidal rating GALAP (GALAP (Galium aparine) [7]; Rate 0.1250 kg/ha): 0.0; Preemergence herbicidal rating GALAP (GALAP (Galium aparine) [7]; Rate 0.2500 kg/ha): 3.0; herbicidal rating, MOOVA ([8]; rate 0.0320 kg/ha): 8.0; herbicidal rating, MOOVA ([8]; rate 0.1250 kg/ha): 9.0; herbicidal rating, CYPIR (CYPIR (Cyperus iria); rate 0.0320 kg/ha): 3.0; herbicidal rating, CYPIR (CYPIR (Cyperus iria); rate 0.1250 kg/ha): 6.0; Postemergence herbicidal rating, SETVI (SETVI (Setaria viridis) [9]; rate 0.0320 kg/ha): 5.0; Postemergence herbicidal rating, SETVI (SETVI (Setaria viridis) [9]; rate 0.0620 kg/ha): 5.0; Postemergence herbicidal rating, SETVI (SETVI (Setaria viridis) [9]; rate 0.1250 kg/ha): 9.0 |
| CCOc1cc(OCC)nc(-c2nsc3ccc(-n4c(=O)cc(C(F)(F)F)n(C)c4=O)cc23)n1 [Compound 43, 3-[3-(4,6-diethoxy-2-pyrimidinyl)-1,2-benzisothiazol-5-yl]-1-methyl-6-(trifluoromethyl)uracil] | 1.0 | 3.0 | 5.0 | 6.0 | 6.0 | 9.0 | 9.0 | 9.0 | 0.0 | 0.0 | 3.0 | 4.0 | 4.0 | 0.0 | 0.0 | 2.0 | 2.0 | 2.0 | 6.0 | 1.0 | Preemergence herbicidal rating GALAP (GALAP (Galium aparine) [7]; Rate 0.1250 kg/ha): 4.0; Preemergence herbicidal rating GALAP (GALAP (Galium aparine) [7]; Rate 0.2500 kg/ha): 5.0; herbicidal rating, MOOVA ([8]; rate 0.0320 kg/ha): 4.0; herbicidal rating, MOOVA ([8]; rate 0.1250 kg/ha): 6.0; herbicidal rating, CYPIR (CYPIR (Cyperus iria); rate 0.0320 kg/ha): 0.0; herbicidal rating, CYPIR (CYPIR (Cyperus iria); rate 0.1250 kg/ha): 5.0; Postemergence herbicidal rating, SETVI (SETVI (Setaria viridis) [9]; rate 0.0320 kg/ha): 5.0; Postemergence herbicidal rating, SETVI (SETVI (Setaria viridis) [9]; rate 0.0620 kg/ha): 4.0 |
| Cc1cccnc1-c1nsc2cc(F)c(-n3c(=O)cc(C(F)(F)F)n(C)c3=O)cc12 [Compound 44, 3-[6-fluoro-3-(3-methyl-2-pyridyl)-1,2-benzisothiazol-5-yl]-1-methyl-6-(trifluoromethyl)uracil] | 5.0 | 6.5 | 9.0 | 8.5 | 8.5 | 9.0 | 9.0 | 9.0 | 9.0 | 9.0 | 9.0 | 4.0 | 7.0 | 3.0 | 7.5 | 9.0 | 7.5 | 7.5 | 9.0 | 0.0 | Preemergence herbicidal rating GALAP (GALAP (Galium aparine) [7]; Rate 0.1250 kg/ha): 9.0; Preemergence herbicidal rating GALAP (GALAP (Galium aparine) [7]; Rate 0.2500 kg/ha): 9.0; herbicidal rating, MOOVA ([8]; rate 0.0080 kg/ha): 0.0; herbicidal rating, MOOVA ([8]; rate 0.0320 kg/ha): 8.5; herbicidal rating, MOOVA ([8]; rate 0.1250 kg/ha): 9.0; herbicidal rating, CYPIR (CYPIR (Cyperus iria); rate 0.0080 kg/ha): 0.0; herbicidal rating, CYPIR (CYPIR (Cyperus iria); rate 0.0320 kg/ha): 8.0; herbicidal rating, CYPIR (CYPIR (Cyperus iria); rate 0.1250 kg/ha): 9.0; Postemergence herbicidal rating, SETVI (SETVI (Setaria viridis) [9]; rate 0.0320 kg/ha): 9.0; Postemergence herbicidal rating, SETVI (SETVI (Setaria viridis) [9]; rate 0.0620 kg/ha): 9.0 |
| Cn1c(C(F)(F)F)cc(=O)n(-c2ccc3snc(C4OCCO4)c3c2)c1=O [Compound 45, 3-[3-(1,3-dioxolan-2-yl)-1,2-benzisothiazol-5-yl]-1-methyl-6-(trifluoromethyl)uracil] | 9.0 | 9.0 | 9.0 | 8.8 | 8.8 | 9.0 | 9.0 | 9.0 | 9.0 | 9.0 | 9.0 | 8.5 | 9.0 | 9.0 | 9.0 | 9.0 | 8.8 | 9.0 | 8.7 | 7.0 | Preemergence herbicidal rating GALAP (GALAP (Galium aparine) [7]; Rate 0.1250 kg/ha): 9.0; Preemergence herbicidal rating GALAP (GALAP (Galium aparine) [7]; Rate 0.2500 kg/ha): 9.0; herbicidal rating, MOOVA ([8]; rate 0.0080 kg/ha): 4.5; herbicidal rating, MOOVA ([8]; rate 0.0320 kg/ha): 9.0; herbicidal rating, MOOVA ([8]; rate 0.1250 kg/ha): 9.0; herbicidal rating, CYPIR (CYPIR (Cyperus iria); rate 0.0080 kg/ha): 9.0; herbicidal rating, CYPIR (CYPIR (Cyperus iria); rate 0.0320 kg/ha): 9.0; herbicidal rating, CYPIR (CYPIR (Cyperus iria); rate 0.1250 kg/ha): 9.0; Postemergence herbicidal rating, SETVI (SETVI (Setaria viridis) [9]; rate 0.0320 kg/ha): 6.3; Postemergence herbicidal rating, SETVI (SETVI (Setaria viridis) [9]; rate 0.0620 kg/ha): 9.0 |
